Results on eight compounds are retold here after PubChem BioAssay (NCI).

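Briefly, cells in 96-well plates were exposed to five compound concentrations for 48 h, and endpoints were estimated by linear interpolation. Abbreviation: GI50, concentration required for 50% inhibition of growth. TGI denotes the concentration required for complete inhibition of growth.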

Some test systems named below: BT-549 breast; HOP-92 NSCLC; M14 melanoma; HCT-116 colon; LOX IMVI melanoma; CAKI-1 renal; T-47D breast; TK-10 renal; SR leukemia; CCRF-CEM leukemia.
Holding throughout (experiment): growth of human tumour cells (NCI), 48 h

For `COc1ccc2c(c1)[C@@]1(C)CCC3c4ccc(O)cc4CCC3C1C2` (some centres undefined), the GI50 in the assay with BT-549 breast was 22.4 µM; in the assay with HOP-92 NSCLC, 17.2 µM; with M14 melanoma, 18.9 µM; with HCT-116 colon, 14.4 µM; in the assay on LOX IMVI melanoma, 11 µM; with CAKI-1 renal, 17.1 µM. The GI50 in the assay on T-47D breast is 11.7 µM; with TK-10 renal, 14 µM; in the assay on SR leukemia, 16.3 µM; with CCRF-CEM leukemia, 12.8 µM. Further, the TGI in the assay with BT-549 breast was 40.7 µM; in the assay on HOP-92 NSCLC it was 33.9 µM; in the assay with M14 melanoma it was 33.5 µM; with HCT-116 colon, 27.5 µM; in the assay on LOX IMVI melanoma, 24.2 µM; with CAKI-1 renal, 32.7 µM. In addition, the TGI with T-47D breast is 26.8 µM; in the assay with TK-10 renal it was 29 µM; in the assay with SR leukemia, above 100 µM; in the assay on CCRF-CEM leukemia, 45.8 µM.

For `O=[N+]([O-])c1cccc(-c2cc(-c3cc(Br)ccc3O)[nH]n2)c1`, the GI50 in the assay on BT-549 breast is 1.26 µM; in the assay on HOP-92 NSCLC it was 2.38 µM; in the assay on M14 melanoma it was 2.08 µM; with HCT-116 colon it was 1.46 µM; in the assay with LOX IMVI melanoma it was 2.73 µM; in the assay with CAKI-1 renal, 1.81 µM. Further, the GI50 in the assay on T-47D breast is 2.64 µM; in the assay with TK-10 renal it was 2.26 µM; in the assay with SR leukemia it was 1.66 µM; in the assay with CCRF-CEM leukemia it was 3.94 µM. For the same compound, the TGI in the assay on BT-549 breast was 4.61 µM; in the assay with HOP-92 NSCLC it was 8.08 µM; in the assay with M14 melanoma, 5.03 µM; with HCT-116 colon, 2.86 µM; in the assay on LOX IMVI melanoma, 8.62 µM; in the assay on CAKI-1 renal, 5.17 µM. The TGI was 8.84 µM with T-47D breast, 6.71 µM in the assay with TK-10 renal, 4.8 µM in the assay with SR leukemia and 19.9 µM with CCRF-CEM leukemia.

As to `COc1ccc(/C=C\c2cc(OC)c(OC)c(OC)c2)cc1OCC(=O)Nc1nc2ccc(OC(F)(F)F)cc2s1`, the GI50 with BT-549 breast was 10.5 µM; in the assay on HOP-92 NSCLC, 2.74 µM; in the assay on M14 melanoma it was 4.36 µM; with HCT-116 colon it was 3.92 µM; in the assay on LOX IMVI melanoma, 4.77 µM; with CAKI-1 renal it was 4.6 µM. For the same compound, the GI50 in the assay with T-47D breast was 3.95 µM; with TK-10 renal it was 18.6 µM; in the assay with SR leukemia, 3.55 µM; in the assay with CCRF-CEM leukemia, 4.12 µM. Moreover, the TGI in the assay with BT-549 breast is above 100 µM; in the assay on HOP-92 NSCLC, 45.1 µM; in the assay on M14 melanoma it was above 100 µM; in the assay on HCT-116 colon it was above 100 µM; in the assay on LOX IMVI melanoma, above 100 µM; in the assay with CAKI-1 renal it was above 100 µM. Besides, the TGI with T-47D breast, in the assay with TK-10 renal, in the assay with SR leukemia and with CCRF-CEM leukemia was above 100 µM each time.

`CCCCCCN1CCN(Cc2ccc(N(CC)CC)cc2)C(=O)C1=O`: the GI50 is 10.2 µM with BT-549 breast; 4.21 µM with HOP-92 NSCLC; 2.3 µM in the assay with M14 melanoma; 3.92 µM in the assay with HCT-116 colon; 7.95 µM in the assay with LOX IMVI melanoma; 7.23 µM in the assay with CAKI-1 renal. Further, the GI50 in the assay on T-47D breast was 5.69 µM; in the assay on TK-10 renal it was 10.3 µM; with SR leukemia it was 1.03 µM; in the assay on CCRF-CEM leukemia, 2.69 µM. The TGI was 95.6 µM in the assay on BT-549 breast; 38.2 µM with HOP-92 NSCLC; 9.08 µM in the assay on M14 melanoma; above 100 µM in the assay with HCT-116 colon; above 100 µM in the assay on LOX IMVI melanoma; above 100 µM with CAKI-1 renal. The TGI with T-47D breast is above 100 µM; in the assay with TK-10 renal, 77.5 µM; with SR leukemia it was 13.4 µM; with CCRF-CEM leukemia it was above 100 µM.

In the case of `COc1cc2c3c(n(C)c(=O)c2cc1OC)-c1cc2c(cc1/C3=C/[C@H](N)CCCCN)OCO2`, the TGI was 2.57 µM in the assay with BT-549 breast; above 50.9 µM with HOP-92 NSCLC; 4.55 µM in the assay on M14 melanoma; 2.24 µM in the assay with HCT-116 colon; 2.37 µM in the assay with LOX IMVI melanoma; 11.5 µM with CAKI-1 renal. Moreover, the TGI in the assay on T-47D breast was above 100 µM; in the assay with TK-10 renal it was 21.5 µM; in the assay on SR leukemia, above 100 µM; in the assay with CCRF-CEM leukemia, above 100 µM. Further, the GI50 with HOP-92 NSCLC is 4.48 µM; in the assay on M14 melanoma, 1.59 µM; with HCT-116 colon it was 0.564 µM; in the assay with LOX IMVI melanoma, 0.63 µM; with CAKI-1 renal, 1.23 µM; with T-47D breast, 4.85 µM. Also, the GI50 is 3.95 µM in the assay on TK-10 renal, 0.123 µM in the assay on SR leukemia and 0.0526 µM in the assay on CCRF-CEM leukemia.

Take `Cc1cc(C)c2c(N)c3cccc(C)c3nc2n1`: the GI50 in the assay on BT-549 breast was 3.48 µM; in the assay with HOP-92 NSCLC, 2.24 µM; with M14 melanoma it was 1.58 µM; in the assay on HCT-116 colon it was 0.667 µM; in the assay on LOX IMVI melanoma it was 1.7 µM; in the assay with CAKI-1 renal, 2.25 µM. The GI50 in the assay on T-47D breast is 2.03 µM; with TK-10 renal, 1.83 µM; in the assay with SR leukemia, 0.703 µM; in the assay with CCRF-CEM leukemia, 3.84 µM. Besides, the TGI was 20.2 µM in the assay with BT-549 breast; 6.96 µM in the assay with HOP-92 NSCLC; 3.24 µM in the assay on M14 melanoma; 3.85 µM in the assay on HCT-116 colon; 4.62 µM in the assay with LOX IMVI melanoma; 8.35 µM in the assay on CAKI-1 renal. In addition, the TGI in the assay on T-47D breast came to 6.25 µM; in the assay with TK-10 renal it was 7.05 µM; in the assay with SR leukemia, 3.94 µM; with CCRF-CEM leukemia, 17 µM.

With `O=C1C=CC(=O)c2c1ncc1c2nc2sccn21`, the GI50 with BT-549 breast is 12.4 µM; in the assay with HOP-92 NSCLC, 14.9 µM; in the assay with M14 melanoma, 15.7 µM; with HCT-116 colon, 12.5 µM; in the assay with LOX IMVI melanoma it was 29.9 µM; in the assay with CAKI-1 renal it was 19.5 µM. For the same compound, the GI50 in the assay with T-47D breast was 31.9 µM; in the assay on TK-10 renal, 18.3 µM; in the assay with SR leukemia, 3.53 µM; in the assay with CCRF-CEM leukemia, 2.07 µM. Also, the TGI with BT-549 breast was 27.7 µM; in the assay on HOP-92 NSCLC, 31.1 µM; in the assay with M14 melanoma, 39.8 µM; in the assay on HCT-116 colon it was 37.8 µM; in the assay on LOX IMVI melanoma, above 100 µM; in the assay with CAKI-1 renal, 42.5 µM. Also, the TGI with T-47D breast is above 100 µM; with TK-10 renal it was 33.5 µM; in the assay on SR leukemia it was 35.3 µM; with CCRF-CEM leukemia it was 6.62 µM.

In the case of `CN(C)CCNC(=O)c1nc([N+](=O)[O-])cn1C`, the TGI in the assay with BT-549 breast, with HOP-92 NSCLC, in the assay with M14 melanoma, in the assay on HCT-116 colon, with LOX IMVI melanoma and with CAKI-1 renal was above 100 µM in each case. Besides, the TGI with T-47D breast, in the assay with TK-10 renal, with SR leukemia and in the assay with CCRF-CEM leukemia was above 100 µM each time.
